A short description of one data set: MTS assay, NIH 3T3 cells. Type of data set: cell-based, mouse. The conditions noted are these: mouse, NIH 3T3 fibroblast cells. In short, it runs like this:
(§1)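 NIH/3T3 cells seeded at 5,000 per well, grown a day in DMEM with 10% FBS, then washed and exposed to serially diluted peptoid in HBSS together with MTS reagent. Absorbance at 490 nm read after 3 hours at 37 °C as a measure of metabolic activity; mean of six replicates.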
On the technique in general: Formazan colour is commonly taken as a measure of viable cells.

The subject of data set [1] is Staphyloccus aureus (ATCC #25923). The data set is described as follows: Murine intraperitoneal infection model. Format: in vivo. The conditions noted are these: mouse, S. aureus I.P. The protocol: Using a murine peritoneal injection mouse model, the ability of peptoids to treat infection was evaluated in vivo. The results from three separate studies of peptoid 1 and two of peptoid 1-Nhis6,12 against saline treated controls are shown in FIG. 7. The horizontal line represents the geometric mean of each population.
Murine intraperitoneal infection model. Bacteria was prepared by inoculating 5 mL of MHB with a single colony of Staphyloccus aureus (ATCC #25923) from a freshly streaked plate and grown overnight at 37 C. The following morning, the bacteria was subcultured by diluting 1/3 in MHB and grown for approximately 1 .5 hours. The bacteria were then diluted 10-fold in a 5% mucin in PBS solution and thoroughly mixed. A sample was reserved to later determine the amount of bacteria the mice received.
Mice were weighed, marked, and injected I.P. with 200 uL of S. aureus inoculum. Four hours post infection, mice were treated I.P. with 4 mg/kg peptoid (˜100 ug per mouse). The infection is allowed to proceed overnight. Mice were euthanized by CO2 asphyxiation after 24 hours, and the peritoneal cavity was exposed and lavaged with 5 mL PBS. The lavage was mixed and reserved on ice until plating. The lavages were diluted to 10^−5 (in1/10 increments) in PBS, and all dilutions were plated onto MH agar, in duplicate. 50 uL of lavage was spot plated, allowed to dry, and incubated overnight at 37° C. Colonies were counted the following day, and the CFU/ml of each sample was calculated. Plates that had too many colonies to count were assigned an arbitrary number of 1000 colonies.

A further data set has as its system E. coli JM109. Type of data set: cell-based. The following applies: Table 1; SR = (HD10)/(E. coli MIC); listed as 1-/Vhis6,12. An excerpt: An initial set of 15 ampetoid analogs was synthesized to determine whether peptoids are affected by structural and sequence modifications in a manner consistent with AMP activities. The designs for ampetoids in this library were derived from two antibacterial and selective amphipathic dodecamers, 1 and 2. Peptoid 1 [H-(Nlys-Nspe-Nspe)4-NH2] is composed of 2/3 Nspe, the peptoid analog of phenylalanine, and 1/3 Mys, the peptoid analog of lysine (see FIG. 1 for the structures of representative peptoid monomers and corresponding N-substituents). Peptoid 2 [H-(Mys-Nssb-Nspe)4-NH2] contains 1/3 isoleucine-like Nssb monomers in place of Nspe. The variant sequences were designed to effect changes in chirality, length, hydrophobicity, charge, and amphipathicity. All of these compounds were tested for antibacterial activity against representative BSL1 Gram-negative (E. coli JM109) and Gram-positive (B. subtilis BR151) bacterial strains. As an initial measure of selectivity, the lytic activity of the peptoids was determined against human erythrocytes. Table 1 summarizes the sequences synthesized, the solvent composition at RP-HPLC elution as a relative measure of molecular hydrophobicity, and antibacterial and hemolytic activities.
Antibacterial assays. MICs were determined according to CLSI M7-A6 protocols in a 96-well microtiter plate. […]

Data set [2] deals with A549 lung epithelial cells. The data set is described as follows: MTS assay, A549 cells. The procedure:
The biocompatibility of selected oligomers with A549 lung epithelial cells was evaluated using the MTS [3-(4,5-dimethylthiazol-2-yl)-5-(3-carboxymethoxyphenyl)-2-(4-sulfophenyl)-2H-tetrazolium] assay.
MTS Assays. A549 carcinoma-derived lung epithelial cells (ATTC CCL-185) were cultured in Ham's F12K media (ATTC, Manassas, Va.). A peptoid solution plate (100 μL/well) was prepared by serial dilution of aqueous peptoid stocks in media. Peptoid solutions were transferred onto a 96-well plate of day-old cell monolayers containing 100 μL/well media with 5000 cells/well. MTS reagent (Promega Corporation, Madison, Wis.) (40 μL/well) was added to each well and the plate was incubated at 37° C. for 3 h, after which absorbance at 490 nm was determined. Percent inhibition was determined as [1−(A−Atest blank)/(Acontrol−Ablank)]×100, where A is the absorbance of the test well and Acontrol the average absorbance of wells with cells exposed to media and MTS (no peptoid). Atest blank (media, MTS, and peptoid) and Ablank (media and MTS) were background absorbances measured in the absence of cells. The average of six replicates are reported, and error bars show one standard deviation.

In data set [3] the test system is NIH 3T3 mouse fibroblast cells. Description: MTS assay, NIH 3T3 cells. Type of data set: cell-based. The following applies: mouse, 3 h. In short, it runs like this:
as §1

Numbered stars: 1 amine (or outer) side, 2 acyl side, 3 side chain; on linkers, the order of the positions; unused ones are H or OH. Square brackets hold non-standard residues; d marks the D form. Ends that are not written are not given here. Peptide text beside a SMILES is read from it. Gly(N-CH2CH2-imidazol-4-yl) = O=C(O)CNCCc1c[nH]cn1; X1 = CC(C)[C@H](C)N(CC(=O)[*:2])[*:1]; Nspe = C[C@H](NCC(=O)O)c1ccccc1; Nlys = NCCCCNCC(=O)O

By CC50 is commonly meant the concentration at which the toxic effect on the cells reaches its halfway point. Consider `CC(C)[C@H](C)N(CC(=O)N(CC(=O)N(CCCCN)CC(=O)N(CC(=O)N(CC(=O)N(CCCCN)CC(=O)N(CC(=O)N(CC(=O)N(CCCCN)CC(=O)N(CC(=O)N(CC(N)=O)[C@@H](C)c1ccccc1)[C@@H](C)C(C)C)[C@@H](C)c1ccccc1)[C@@H](C)C(C)C)[C@@H](C)c1ccccc1)[C@@H](C)C(C)C)[C@@H](C)c1ccccc1)C(=O)CNCCCCN` [1-Nsdp2,5,8,11, H-(Nlys-Nsdp-Nspe)4-NH2] (H-[Nlys][X1][Nspe][Nlys][X1][Nspe][Nlys][X1][Nspe][Nlys][X1][Nspe]-NH2), for which it took 20 µM to reach half-maximal cytotoxicity in “MTS assay, NIH 3T3 cells” (CC50 at 3 h).
For the compound `C[C@@H](c1ccccc1)N(CC(=O)N(CCc1cnc[nH]1)CC(=O)N(CCCCN)CC(=O)N(CC(=O)N(CC(=O)N(CCCCN)CC(=O)N(CC(=O)N(CCc1cnc[nH]1)CC(N)=O)[C@@H](C)c1ccccc1)[C@@H](C)c1ccccc1)[C@@H](C)c1ccccc1)C(=O)CN(CCCCN)C(=O)CN(C(=O)CN(C(=O)CNCCCCN)[C@@H](C)c1ccccc1)[C@@H](C)c1ccccc1` [1-Nhis6,12, H-(Nlys-Nspe-Nspe-Nlys-Nspe-Nhis)2-NH2] (H-[Nlys][Nspe][Nspe][Nlys][Nspe][Gly(N-CH2CH2-imidazol-4-yl)][Nlys][Nspe][Nspe][Nlys][Nspe][Gly(N-CH2CH2-imidazol-4-yl)]-NH2), the “bacterial counts from the peritoneal lavage” value in data set [1] (4 mg/kg peptoid I.P. four hours post infection, 24 hours, vs saline treated controls) was “not reduced”. For the same compound, the “mice that died prematurely during the exposure period” value in data set [1] (4 mg/kg peptoid I.P., eleven mice for 1-Nhis6,12) is reported as “eight”. Besides, the “Selectivity ratio (SR)” value in the data set on E. coli JM109 is listed as more than 31. Besides, the “ID10 relative to that of pexiganan” value in data set [2] worked out at 20 times.
In the case of “GIGKFLKKAKKFGKAFVKILKK-NH2 [pexiganan, reference compound]”, the ID50 in data set [3] came out at 9 µM.

Values taken from patent publication US20120295838A1, “Selective poly-substituted glycine antibiotics and related compositions” (priority 2008, published 2012).
